Measured values as given in article PMC10708540, “Determination and Kinetic Characterization of a New Potential Inhibitor for AmsI Protein Tyrosine Phosphatase from the Apple Pathogen Erwinia amylovora” (Molecules, 2023).

Columns and labels:
[1] = tested on: O=[N+]([O-])c1ccc(OP(=O)(O)O)cc1; assay: purified protein
[2] = molecular target: T1, EaAmsI (AmsI, Low Molecular Weight Protein Tyrosine Phosphatase) (Erwinia amylovora, UniProt Q46630); assay: pNPP hydrolysis at […] nm, Michaelis-Menten global fit with competitive inhibition model; assay type: biochemical
T1 construct: recombinant EaAmsI (gene from strain Ea273, pETM-11 vector)
T1 sequence (Q46630 whole entry): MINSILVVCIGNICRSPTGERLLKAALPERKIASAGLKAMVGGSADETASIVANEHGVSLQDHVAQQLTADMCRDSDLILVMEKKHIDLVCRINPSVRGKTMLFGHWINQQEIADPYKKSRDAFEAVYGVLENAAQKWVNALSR

[3] = molecular target: T1, EaAmsI (AmsI, Low Molecular Weight Protein Tyrosine Phosphatase); assay: pNPP hydrolysis, dose-response IC50; assay type: biochemical

Molecule: EaAmsI (AmsI, Low Molecular Weight Protein Tyrosine Phosphatase) (Erwinia amylovora)
- Km [1]: 15.1 ± 1.3 mM

Molecule: CCCCCCCO[C@@H]1O[C@H](CO)[C@@H](O)[C@H](O)[C@H]1O [N7G, (2R,3R,4S,5S,6R)-2-(heptyloxy)-6-(hydroxymethyl)oxane-3,4,5-triol]
- Ki [2]: 0.0078 ± 0.0006 mM

Molecule: CCCCCCCCO[C@@H]1O[C@H](CO)[C@@H](O)[C@H](O)[C@H]1O [N8G, (2R,3S,4S,5R,6R)-2-(hydroxymethyl)-6-(octyloxy)oxane-3,4,5-triol]
- IC50 [3]: 9.5 ± 1.3 mM
